Measurements from ChEMBL document CHEMBL1201862, “PubChem BioAssay data set” (2004).
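Step 1: Grow cells in 96-well plates. Step 2: Expose to compound for 48 hours at 5 concentrations. Step 3: Interpolate endpoints linearly; if unreached, use highest concentration. At the GI50, growth is halved.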 Activity calls are given as the source filed them. Cut-off read from the data, not from the text of the source: active = GI50 up to about 1.1 µM and inactive = higher.

What was measured:
Experiment in all cases: growth of human tumour cells (NCI), 48 h
TK-10 = test system: TK-10
EKVX = test system: EKVX
SK-MEL-28 = test system: SK-MEL-28
HCC 2998 = test system: HCC 2998
HOP-18 = test system: HOP-18
SR = test system: SR
MOLT-4 = test system: MOLT-4
SK-MEL-2 = test system: SK-MEL-2
SK-OV-3 = test system: SK-OV-3
786-0 = test system: 786-0
HOP-92 = test system: HOP-92
SF-539 = test system: SF-539
SW-620 = test system: SW-620
A549 = test system: A549
HOP-62 = test system: HOP-62
SNB-75 = test system: SNB-75
RXF 393 = test system: RXF 393
SN12C = test system: SN12C
NCI/ADR-RES = test system: NCI/ADR-RES
BT-549 = test system: BT-549

Measured: GI50

O=C1COc2cc3c(cc2N1)SCC(=O)N3
inactive: TK-10 > 100 µM | EKVX 6.41 µM | SK-MEL-28 > 100 µM | HCC 2998 > 100 µM | HOP-18 > 100 µM | SR > 100 µM | MOLT-4 > 100 µM | SK-MEL-2 > 100 µM | SK-OV-3 > 100 µM | 786-0 > 100 µM | HOP-92 > 100 µM | SF-539 > 100 µM | SW-620 > 100 µM | A549 > 100 µM | HOP-62 > 100 µM | SNB-75 > 100 µM

CNC1=C(C)C(=O)C(C)=C(C(C)(C)CC(=O)n2cc(F)c(=O)[nH]c2=O)C1=O
inactive: TK-10 > 59.3 µM | RXF 393 > 100 µM | EKVX 16.1 µM | SK-MEL-28 > 30.9 µM | HCC 2998 1.16 µM | HOP-18 > 100 µM | MOLT-4 26.7 µM | SK-MEL-2 > 63.5 µM | SK-OV-3 > 100 µM | SN12C 8.67 µM | 786-0 22.6 µM | HOP-92 > 100 µM | SF-539 3.97 µM | SW-620 39.9 µM | A549 5.09 µM | HOP-62 3.97 µM | SNB-75 69.3 µM

O=C(O)CCNS(=O)(=O)c1ccc2ccccc2c1
inactive: TK-10 > 100 µM | RXF 393 > 10 µM | EKVX > 100 µM | SK-MEL-28 > 100 µM | HCC 2998 > 100 µM | HOP-18 > 100 µM | MOLT-4 > 100 µM | SK-MEL-2 > 100 µM | SK-OV-3 > 100 µM | SN12C > 100 µM | 786-0 > 100 µM | HOP-92 > 100 µM | SF-539 > 100 µM | SW-620 > 100 µM | A549 > 100 µM | SNB-75 > 100 µM

CCOc1cc2ccc3c4cc(OC)c(OC)cc4cnc3c2cc1OCC
inactive: TK-10 > 100 µM | EKVX > 100 µM | SK-MEL-28 > 100 µM | HCC 2998 > 100 µM | HOP-18 > 100 µM | MOLT-4 > 100 µM | SK-MEL-2 > 100 µM | SK-OV-3 > 100 µM | SN12C > 100 µM | 786-0 > 100 µM | SF-539 > 100 µM | SW-620 > 100 µM | A549 > 100 µM | HOP-62 > 100 µM | SNB-75 > 100 µM

Cn1cc2ccccc2c1-c1nc(F)nc(Oc2ccc3c(c2)CC[C@@H]2C3CC[C@]3(C)C(O)CCC23)n1 (stereo partly drawn)
inactive: TK-10 16.2 µM | RXF 393 22.6 µM | EKVX > 10 µM | SK-MEL-28 16.3 µM | HCC 2998 19.9 µM | HOP-18 15.3 µM | MOLT-4 17.6 µM | SK-MEL-2 16.5 µM | SK-OV-3 17.2 µM | SN12C 15.4 µM | 786-0 16.9 µM | HOP-92 18.4 µM | SF-539 17.4 µM | SW-620 19.5 µM | A549 22.1 µM | HOP-62 16.7 µM | SNB-75 14.2 µM

O=C(O)[C@H](NS(=O)(=O)c1ccc([N+](=O)[O-])cc1)c1ccccc1
inactive: TK-10 > 100 µM | RXF 393 > 100 µM | EKVX > 100 µM | SK-MEL-28 > 100 µM | HCC 2998 > 100 µM | HOP-18 > 100 µM | MOLT-4 > 100 µM | SK-MEL-2 > 100 µM | SK-OV-3 > 100 µM | SN12C > 100 µM | 786-0 > 100 µM | HOP-92 > 100 µM | SF-539 > 100 µM | SW-620 > 100 µM | A549 > 100 µM | HOP-62 > 100 µM | SNB-75 > 100 µM

Nc1ccc(C(=O)CC2(O)C(=O)Nc3c(Cl)cc(Cl)cc32)cc1 (stereo not drawn)
inactive: TK-10 > 100 µM | RXF 393 > 100 µM | EKVX > 100 µM | SK-MEL-28 > 100 µM | HCC 2998 > 100 µM | HOP-18 90.6 µM | MOLT-4 46.8 µM | SK-MEL-2 > 100 µM | SK-OV-3 > 100 µM | SN12C > 100 µM | 786-0 > 100 µM | HOP-92 > 100 µM | SF-539 > 100 µM | SW-620 25.5 µM | A549 > 100 µM | HOP-62 > 100 µM | SNB-75 58.1 µM

COc1ccc(C2C(C(=O)O)=C(COC(C)=O)Oc3cc4c(cc32)OCO4)c(OC)c1 (stereo not drawn)
inactive: TK-10 > 100 µM | RXF 393 > 100 µM | EKVX > 100 µM | SK-MEL-28 > 100 µM | HOP-18 > 100 µM | MOLT-4 > 100 µM | SK-MEL-2 > 100 µM | SK-OV-3 > 100 µM | SN12C > 100 µM | 786-0 > 100 µM | HOP-92 90.6 µM | SF-539 > 100 µM | SW-620 > 100 µM | A549 > 100 µM | HOP-62 > 100 µM | SNB-75 > 100 µM

C=C[C@]1(C)C[C@@H](OC(=O)CO)[C@@]2(C)[C@H](C)CC[C@]3(CCC(=O)[C@H]32)[C@@H](C)[C@@H]1O
inactive: TK-10 > 59.3 µM | NCI/ADR-RES > 100 µM | RXF 393 > 59 µM | EKVX > 100 µM | SK-MEL-28 > 74.1 µM | HCC 2998 72.9 µM | SR > 43.4 µM | MOLT-4 37.5 µM | SK-MEL-2 > 59.3 µM | SK-OV-3 > 100 µM | SN12C > 100 µM | BT-549 > 61.4 µM | 786-0 > 100 µM | HOP-92 > 86.1 µM | SF-539 > 100 µM | SW-620 > 82.2 µM | A549 > 100 µM | HOP-62 71.8 µM | SNB-75 > 74 µM

COC(=O)Cc1c([C@@H]2Nc3ccccc3[C@H]2CC(=O)OC)[nH]c2ccccc12
inactive: TK-10 44.2 µM | NCI/ADR-RES 26.9 µM | RXF 393 25.7 µM | EKVX 43 µM | SK-MEL-28 28.3 µM | HCC 2998 45.1 µM | SR 8.02 µM | MOLT-4 10.9 µM | SK-MEL-2 17.7 µM | SK-OV-3 52.4 µM | SN12C 30.3 µM | BT-549 18.5 µM | 786-0 58.2 µM | HOP-92 45.8 µM | SF-539 20.5 µM | SW-620 46.8 µM | A549 31.7 µM | HOP-62 26.9 µM | SNB-75 36.9 µM

COCn1c(C)c(C)c2c(=O)oc(=O)[nH]c21
inactive: TK-10 > 100 µM | NCI/ADR-RES > 100 µM | RXF 393 > 100 µM | EKVX > 100 µM | SK-MEL-28 > 100 µM | HCC 2998 > 100 µM | SR > 100 µM | MOLT-4 > 100 µM | SK-MEL-2 > 100 µM | SK-OV-3 > 100 µM | SN12C > 100 µM | BT-549 > 100 µM | 786-0 > 100 µM | HOP-92 > 100 µM | SF-539 > 100 µM | SW-620 > 100 µM | A549 > 100 µM | HOP-62 > 100 µM | SNB-75 > 100 µM
